Test results as given in patent US5723494A, “Derivatives of glutamic and aspartic acids, a method of preparing them, and their use as drugs for enhancing memory and learning” (priority 1993, dated 1998).

Columns and labels:
[1] = Memory-enhancement activity in the passive avoidance test in the rat; type: in vivo, rat (male Wistar); details: rat
[2] = test system: excitor amino-acid receptors of cortical membranes ("forebrain") of rats; assay: Inhibition of the specific binding of [3H]-glutamate to rat forebrain membranes
Outline: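 Forebrain membranes (cortex plus hippocampus, striatum removed) in Tris-HCl pH 7.1 incubated with ³H-L-glutamate and test compound for 20 min at 37 °C. Filtration on glass-fibre filters, scintillation counting; specific binding = total minus binding with 3.6 mM cold L-glutamate.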

[3] = Memory-enhancement activity in the active avoidance test in the rat; type: in vivo, rat (male Wistar); details: for % variation vs controls, avoidance learning / % variation vs controls, avoidance memory / % variation vs controls, escape response / % variation vs controls, shock response / % variation vs controls, total avoidance response / Average % avoidance learning, last 10 TR / Average % avoidance memory, first 10 TR/40 TR / Average % escape response / Average % shock response / Average % total avoidance response, 40 trials: fifth day
Excerpt: 3) Memory-enhancement activity in the "active avoidance" test in the rat
Male Wistar rats which weighed about 200 g and had not fasted were used. The method consisted of making the animal understand that, in order to avoid a shock, it must go from one compartment of the equipment used (a shuttle box) to the other. For this reason it is defined as active avoidance (because the animal takes action to avoid the punishment).
In this test it is also possible to discriminate between two different parameters: memory and learning.
The equipment consisted of a cage divided into two portions by a wall with an opening at floor level to enable the animal to go from one portion of the cage to the other.
The reinforcement, that is, the reason which forced the rat to become conditioned to the sound and to the light, consisted of an electrical stimulus coming from the grid floor of the cage (an Unconditioned stimulus). The floor of the cage was constituted by a metal grid for the passage of the current and could rock so that, each time the rat passed through the dividing hole, the floor tilted, due to its weight, interrupting the current.
The test lasted for five days. On the first day, the animals were subjected to the first session of 40 cycles with an interval of 30 sec between cycles (duration of the session=20 minutes).
For each 30 sec cycle, a light stimulus and a sound stimulus lasting for 3 seconds were applied, followed by the 0.4 mA shock, which also lasted for 3 sec.
At the end of the first day, the rats were selected randomly in homogeneous groups and treated with the product under test or with physiological solutions (controls).
On subsequent days, the rats underwent the first treatment 15 minutes before the session and the second treatment at the end of the day. In 5 days of tests the animal thus underwent 8 treatments in total.
The 40 cycles were divided into 4 sessions each of 10 cycles for the 5 days' duration of the test.
The performance of each animal was evaluated as: % shock response, % escape response; % total avoidance response (these refer to all 40 cycles of each day); memory, as % of the avoidance responses in the first session of each day (the first 10 cycles); learning: as % of avoidance responses in the fourth session of each day (the last 10 cycles).
All the % were calculated on regression lines calculated on the basis of the responses obtained daily for each individual parameter, on the fifth (last) day of the experiment.
The results are expressed as the percentage variation of the averages of the individual responses obtained for the treated groups in comparison with the control group. The results thus calculated are given in Table 3 below, which gives the statistical analysis between the treatment groups against the controls, carried out by analysis of the relative variance with respect to the overall results for the 5 days.

For `CC1(C)CCC(NC(=O)[C@@H](N)CCC(=O)O)CC1` [Compound 23, 1-(4,4-dimethylcyclohexyl)-L-isoglutamine[4-amino-5-(4',4'-dimethylcyclohexylamine)-5-oxopentanoic acid (S)]], the change in vivo at 0.1 mg/kg ([1]; 96 h, 0.1 mg/kg IP, retest on the 4th day, 6 treatments, read-out: % variation vs controls (FS) in step through latency) was 11%, the change in vivo at 1 mg/kg ([1]; 96 h, 1 mg/kg IP, retest on the 4th day, 6 treatments, read-out: % variation vs controls (FS) in step through latency) was 19% and the change in vivo at 10 mg/kg ([1]; 96 h, 10 mg/kg IP, retest on the 4th day, 6 treatments, read-out: % variation vs controls (FS) in step through latency) was 43%. For the same molecule, the ED30 ([1]; IP, read-out: ED30 (dose increasing the latency time (STL) by 30%)) was 2.3 mg/kg, the “Activity in increasing the avoidance time (in words)” value ([1]; IP, retest on the 4th day) was “considerable activity in increasing the avoidance time” and the “Activity in inhibiting the binding of glutamate (in words)” value ([2]; rat cortical membranes) was “considerable activity in inhibiting the binding of the glutamate”. The IC50 ([2]; rat forebrain membranes, 20 min, 37° C., pH 7.1) was 13.8 µM, the “% variation vs controls, avoidance learning” value ([3]; 1 mg/kg i.p. 2/day) was “+17.2%” and the “% variation vs controls, avoidance memory” value ([3]; 1 mg/kg i.p. 2/day) was -16.7%. The “% variation vs controls, escape response” value ([3]; 1 mg/kg i.p. 2/day) was -11.1%, the “% variation vs controls, shock response” value ([3]; 1 mg/kg i.p. 2/day) was -8.6% and the “% variation vs controls, total avoidance response” value ([3]; 1 mg/kg i.p. 2/day) was “+33.3%”. For the same molecule, the “Average % avoidance learning, last 10 TR” value ([3]; 1 mg/kg i.p. 2/day) was 34%, the “Average % avoidance memory, first 10 TR/40 TR” value (“Average % avoidance memory” below) ([3]; 1 mg/kg i.p. 2/day) was 10% and the “Average % escape response” value ([3]; 1 mg/kg i.p. 2/day) was 8%. The “Average % shock response” value ([3]; 1 mg/kg i.p. 2/day) was 64%, the “Average % total avoidance response, 40 trials” value ([3]; 1 mg/kg i.p. 2/day) was 26% and the “% variation vs controls, avoidance learning” value ([3]; 3 mg/kg i.p. 2/day) was “+82.7%”. For the same molecule, the “% variation vs controls, avoidance memory” value ([3]; 3 mg/kg i.p. 2/day) was “+142%”, the “% variation vs controls, escape response” value ([3]; 3 mg/kg i.p. 2/day) was “+144%” and the “% variation vs controls, shock response” value ([3]; 3 mg/kg i.p. 2/day) was -51.4%. The “% variation vs controls, total avoidance response” value ([3]; 3 mg/kg i.p. 2/day) was “+109%”, the “Average % avoidance learning, last 10 TR” value ([3]; 3 mg/kg i.p. 2/day) was 53% and the “Average % avoidance memory” value ([3]; 3 mg/kg i.p. 2/day) was 29%. For the same molecule, the “Average % escape response” value ([3]; 3 mg/kg i.p. 2/day) was 22%, the “Average % shock response” value ([3]; 3 mg/kg i.p. 2/day) was 34% and the “Average % total avoidance response, 40 trials” value ([3]; 3 mg/kg i.p. 2/day) was 44%. The “% variation vs controls, avoidance learning” value ([3]; 10 mg/kg i.p. 2/day) was “+145%”, the “% variation vs controls, avoidance memory” value ([3]; 10 mg/kg i.p. 2/day) was “+183%” and the “% variation vs controls, escape response” value ([3]; 10 mg/kg i.p. 2/day) was “+241%”. For the same molecule, the “% variation vs controls, shock response” value ([3]; 10 mg/kg i.p. 2/day) was -81.4%, the “% variation vs controls, total avoidance response” value ([3]; 10 mg/kg i.p. 2/day) was “+166%” and the “Average % avoidance learning, last 10 TR” value ([3]; 10 mg/kg i.p. 2/day) was 71%. For the same molecule, the “Average % avoidance memory” value ([3]; 10 mg/kg i.p. 2/day) was 34%, the “Average % escape response” value ([3]; 10 mg/kg i.p. 2/day) was 31% and the “Average % shock response” value ([3]; 10 mg/kg i.p. 2/day) was 13%. For the same molecule, the “Average % total avoidance response, 40 trials” value ([3]; 10 mg/kg i.p. 2/day) was 56%, the “Shock responses (in words)” value ([3]; rat, i.p.) was “greatly reduced” and the “Total avoidance responses (in words)” value ([3]; rat, i.p.) was “significantly increases the total avoidance responses in a dose-dependent manner”.
